Reference: the supplement of paper PMC10627819

What was measured:
B. subtilis 168 [1] = experiment: fitness (endpoint OD595 vs no drug) (fraction); higher = more growth
How it was run: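 Fitness expresses the optical density reached at the stationary-phase transition as a fraction of the robust mean of no-drug control wells. It is capped at 1. Measurements were OD595 every 30 min for 14 h at 37 °C after inoculation of 384-well plates at OD595 0.01 (30 µl, or 55 µl for S. pneumoniae), minus the first reading.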

B. subtilis 168 [2] = experiment: Bliss interaction score (quartile over a dose matrix) (fitness difference); higher = more antagonism (negative = synergy)
How it was run: (§1)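 Quartiles summarise the Bliss score over technical, biological and donor/recipient replicates, where the score is observed minus expected fitness under a product model. Expected fitness uses single-drug values inferred from combination data. Fitness is OD595 at entry into stationary phase over the plate's robust no-drug mean, capped at 1.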

S. aureus DSM 20231 = experiment: as above
How it was run: as §1

S. aureus Newman = experiment: as above
How it was run: as §1

S. pneumoniae D39V = experiment: as above
How it was run: as §1
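For Bliss interaction score (quartile over a dose matrix) in this document: first quartile when negative (synergy) and third quartile when positive (antagonism).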

CO/N=C(\C(=O)N[C@@H]1C(=O)N2C(C(=O)O)=C(COC(N)=O)CS[C@H]12)c1ccco1 [Cefuroxime] + CCC(C)C1C(=O)NC(=C)C(=O)NC(C(=O)NC(CSCC(C(=O)N1)NC(=O)/C(=C/C)/NC(=O)C(C(C)CC)N)C(=O)NC2C(SCC(NC(=O)CNC(=O)C3CCCN3C2=O)C(=O)NC(CCCCN)C(=O)NC4C(SCC(NC(=O)CNC(=O)C(NC(=O)C(NC(=O)C(NC(=O)CNC4=O)C)CC(C)C)CCSC)C(=O)NC(CC(=O)N)C(=O)NC(CCSC)C(=O)NC(CCCCN)C(=O)NC5C(SCC6C(=O)NC(C(=O)NC(CSC(C(C(=O)N6)NC(=O)C(NC5=O)C)C)C(=O)NC(CO)C(=O)NC(C(C)CC)C(=O)NC(CC7=CN=CN7)C(=O)NC(C(C)C)C(=O)NC(=C)C(=O)NC(CCCCN)C(=O)O)CC8=CN=CN8)C)C)C)CC(C)C [Nisin]
B. subtilis 168 [1], one replicate, main component drawn
Conditions	fitness
first compound 0.04875 µg/mL, partner 0.5 µg/mL	0.608
first compound 0.04875 µg/mL, partner 1 µg/mL	0.529
first compound 0.04875 µg/mL, partner 2 µg/mL	0.417
first compound 0.04875 µg/mL, partner 4 µg/mL	0.0351
first compound 0.04875 µg/mL, partner 8 µg/mL	0.0258
first compound 0.04875 µg/mL, partner 16 µg/mL	0.0482
first compound 0.0975 µg/mL, partner 0.5 µg/mL	0.471
first compound 0.0975 µg/mL, partner 1 µg/mL	0.427
first compound 0.0975 µg/mL, partner 2 µg/mL	0.261
first compound 0.0975 µg/mL, partner 4 µg/mL	0.032
first compound 0.0975 µg/mL, partner 8 µg/mL	0.0195
first compound 0.0975 µg/mL, partner 16 µg/mL	0.02
first compound 0.195 µg/mL, partner 0.5 µg/mL	0.385
first compound 0.195 µg/mL, partner 1 µg/mL	0.382
first compound 0.195 µg/mL, partner 1.25 µg/mL	0.173
first compound 0.195 µg/mL, partner 1.6 µg/mL	0.0755
first compound 0.195 µg/mL, partner 2 µg/mL	0.278
first compound 0.195 µg/mL, partner 2.5 µg/mL	0.0381
first compound 0.195 µg/mL, partner 3.2 µg/mL	0.0377
first compound 0.195 µg/mL, partner 4 µg/mL	0.0274
first compound 0.195 µg/mL, partner 5 µg/mL	0.0619
first compound 0.195 µg/mL, partner 6.4 µg/mL	0.0264
first compound 0.195 µg/mL, partner 8 µg/mL	0.0204
first compound 0.195 µg/mL, partner 16 µg/mL	0.0103
first compound 0.39 µg/mL, partner 1.25 µg/mL	0.086
first compound 0.39 µg/mL, partner 1.6 µg/mL	0.0435
first compound 0.39 µg/mL, partner 2.5 µg/mL	0.0309
first compound 0.39 µg/mL, partner 3.2 µg/mL	0.0108
first compound 0.39 µg/mL, partner 5 µg/mL	0.0219
first compound 0.39 µg/mL, partner 6.4 µg/mL	0.0352
first compound 0.78 µg/mL, partner 1.25 µg/mL	0.0678
first compound 0.78 µg/mL, partner 1.6 µg/mL	0.0281
first compound 0.78 µg/mL, partner 2.5 µg/mL	0.0242
first compound 0.78 µg/mL, partner 3.2 µg/mL	0.0058
first compound 0.78 µg/mL, partner 5 µg/mL	0.0235
first compound 0.78 µg/mL, partner 6.4 µg/mL	0.0238
first compound 1.562 µg/mL, partner 0.5 µg/mL	0.257
first compound 1.562 µg/mL, partner 1 µg/mL	0.0875
first compound 1.562 µg/mL, partner 2 µg/mL	0.038
first compound 3.125 µg/mL, partner 0.5 µg/mL	0.173
first compound 3.125 µg/mL, partner 1 µg/mL	0.0836
first compound 3.125 µg/mL, partner 2 µg/mL	0.02
first compound 6.25 µg/mL, partner 0.5 µg/mL	0.105
first compound 6.25 µg/mL, partner 1 µg/mL	0.0185
first compound 6.25 µg/mL, partner 2 µg/mL	0.0198

main component drawn
Conditions	Bliss interaction score
B. subtilis 168 [2]	-0.0638
S. aureus DSM 20231	-0.109
S. aureus Newman	-0.331
S. pneumoniae D39V	0.0468

O=C(O)c1cn(C2CC2)c2cc(N3CCNCC3)c(F)cc2c1=O [Ciprofloxacin] + COc1cc(Cc2cnc(N)nc2N)cc(OC)c1OC [Trimethoprim]
fitness, B. subtilis 168 [1], one replicate
Conditions	partner 0.1 µg/mL	partner 0.2 µg/mL	partner 0.4 µg/mL	partner 1 µg/mL	partner 2 µg/mL
first compound 0.0098 µg/mL	0.863	0.721	0.516	0.342	0.321
first compound 0.0195 µg/mL	0.835	0.552	0.457	0.333	0.349
first compound 0.039 µg/mL	0.412	0.355	0.334	0.276	0.246

fitness, B. subtilis 168 [1]
Conditions	first compound 0.0098 µg/mL	first compound 0.0195 µg/mL	first compound 0.039 µg/mL
partner 0.125 µg/mL	0.647	0.546	0.424
partner 0.25 µg/mL	0.547	0.428	0.355
partner 0.5 µg/mL	0.479	0.444	0.387

Conditions	Bliss interaction score
B. subtilis 168 [2]	0.135
S. aureus DSM 20231	-0.106
S. aureus Newman	-0.165
S. pneumoniae D39V	0.0557

CO/N=C(\C(=O)N[C@@H]1C(=O)N2C(C(=O)O)=C(COC(N)=O)CS[C@H]12)c1ccco1 [Cefuroxime] + CN(C)C(=O)C(CCN1CCC(O)(c2ccc(Cl)cc2)CC1)(c1ccccc1)c1ccccc1 [Loperamide]
fitness, B. subtilis 168 [1]
Conditions	first compound 0.04875 µg/mL	first compound 0.0975 µg/mL	first compound 0.195 µg/mL
partner 50 µg/mL	0.0325	0.0377	0.0259
partner 100 µg/mL	0.0294	0.0312	0.0385

fitness, B. subtilis 168 [1], one replicate
Conditions	first compound 1.562 µg/mL	first compound 3.125 µg/mL	first compound 6.25 µg/mL
partner 25 µg/mL	0.0361	0.0294	0.0192
partner 50 µg/mL	0.0196	0.033	0.0196
partner 100 µg/mL	0.012	0.0049	0.0099

Conditions	Bliss interaction score
B. subtilis 168 [2]	-0.12
S. aureus DSM 20231	-0.521
S. aureus Newman	-0.0645
S. pneumoniae D39V	-0.0403

CO/N=C(\C(=O)N[C@@H]1C(=O)N2C(C(=O)O)=C(COC(N)=O)CS[C@H]12)c1ccco1 [Cefuroxime] + CO[C@@H]1[C@@H](OC(N)=O)[C@@H](O)[C@H](Oc2ccc3c(O)c(NC(=O)c4ccc(O)c(CC=C(C)C)c4)c(=O)oc3c2C)OC1(C)C [Novobiocin]
B. subtilis 168 [1], one replicate
Conditions	fitness
first compound 0.04875 µg/mL, partner 0.0125 µg/mL	≥ 1
first compound 0.04875 µg/mL, partner 0.025 µg/mL	0.997
first compound 0.04875 µg/mL, partner 0.1 µg/mL	0.563
first compound 0.04875 µg/mL, partner 0.2 µg/mL	0.528
first compound 0.0975 µg/mL, partner 0.0125 µg/mL	0.824
first compound 0.0975 µg/mL, partner 0.025 µg/mL	0.893
first compound 0.0975 µg/mL, partner 0.1 µg/mL	0.483
first compound 0.0975 µg/mL, partner 0.2 µg/mL	0.429
first compound 0.195 µg/mL, partner 0.0125 µg/mL	0.756
first compound 0.195 µg/mL, partner 0.025 µg/mL	0.76
first compound 0.195 µg/mL, partner 0.1 µg/mL	0.36
first compound 0.195 µg/mL, partner 0.125 µg/mL	0.133
first compound 0.195 µg/mL, partner 0.2 µg/mL	0.335
first compound 0.195 µg/mL, partner 0.25 µg/mL	0.108
first compound 0.195 µg/mL, partner 0.5 µg/mL	0.017
first compound 0.39 µg/mL, partner 0.125 µg/mL	0.116
first compound 0.39 µg/mL, partner 0.25 µg/mL	0.0783
first compound 0.39 µg/mL, partner 0.5 µg/mL	0
first compound 0.78 µg/mL, partner 0.125 µg/mL	0.0821
first compound 0.78 µg/mL, partner 0.25 µg/mL	0.0334
first compound 0.78 µg/mL, partner 0.5 µg/mL	0.0061
first compound 1.562 µg/mL, partner 0.0125 µg/mL	0.318
first compound 1.562 µg/mL, partner 0.025 µg/mL	0.274
first compound 1.562 µg/mL, partner 0.05 µg/mL	0.263
first compound 3.125 µg/mL, partner 0.0125 µg/mL	0.264
first compound 3.125 µg/mL, partner 0.025 µg/mL	0.23
first compound 3.125 µg/mL, partner 0.05 µg/mL	0.189
first compound 6.25 µg/mL, partner 0.0125 µg/mL	0.249
first compound 6.25 µg/mL, partner 0.025 µg/mL	0.178
first compound 6.25 µg/mL, partner 0.05 µg/mL	0.159

B. subtilis 168 [1], partner 0.05 µg/mL
Conditions	fitness
first compound 0.0975 µg/mL	0.665
first compound 0.195 µg/mL	0.555

Conditions	Bliss interaction score
B. subtilis 168 [2]	-0.0729
S. aureus DSM 20231	0.119
S. aureus Newman	-0.131
S. pneumoniae D39V	0.0773

O=C(O)c1cn(C2CC2)c2cc(N3CCNCC3)c(F)cc2c1=O [Ciprofloxacin] + CO[C@@H]1[C@@H](OC(N)=O)[C@@H](O)[C@H](Oc2ccc3c(O)c(NC(=O)c4ccc(O)c(CC=C(C)C)c4)c(=O)oc3c2C)OC1(C)C [Novobiocin]
fitness, B. subtilis 168 [1]
Conditions	first compound 0.0098 µg/mL	first compound 0.0195 µg/mL	first compound 0.039 µg/mL
partner 0.0125 µg/mL	0.905	0.769	0.127
partner 0.025 µg/mL	0.92	0.723	0.034
partner 0.05 µg/mL	0.964	0.726	0.0487

fitness, B. subtilis 168 [1], one replicate
Conditions	partner 0.1 µg/mL	partner 0.125 µg/mL	partner 0.2 µg/mL	partner 0.25 µg/mL	partner 0.5 µg/mL
first compound 0.0098 µg/mL	0.926	0.84	0.915	0.697	0.15
first compound 0.0195 µg/mL	0.727	0.78	0.71	0.448	0.066
first compound 0.039 µg/mL	0.127	0.0634	0.089	0.0302	0.0454

Conditions	Bliss interaction score
B. subtilis 168 [2]	-0.183
S. aureus DSM 20231	-0.0685
S. aureus Newman	-0.115
S. pneumoniae D39V	-0.161
